ChEMBL document CHEMBL4825742, “Novel Histone Deacetylase 6 Inhibitors for Treating Alzheimer's Disease and Cancer” (ACS Med Chem Lett, 2021)

The compounds below were run against T1, Protein deacetylase HDAC6 (Homo sapiens, UniProt Q9UBN7) (assay: Inhibition of human full length HDAC6 expressed in baculovirus expression system using FAM-RHKK(Ac)-NH2 as substrate incubated for 5 hrs by […] endpoint assay).
T1 sequence (Q9UBN7 whole entry): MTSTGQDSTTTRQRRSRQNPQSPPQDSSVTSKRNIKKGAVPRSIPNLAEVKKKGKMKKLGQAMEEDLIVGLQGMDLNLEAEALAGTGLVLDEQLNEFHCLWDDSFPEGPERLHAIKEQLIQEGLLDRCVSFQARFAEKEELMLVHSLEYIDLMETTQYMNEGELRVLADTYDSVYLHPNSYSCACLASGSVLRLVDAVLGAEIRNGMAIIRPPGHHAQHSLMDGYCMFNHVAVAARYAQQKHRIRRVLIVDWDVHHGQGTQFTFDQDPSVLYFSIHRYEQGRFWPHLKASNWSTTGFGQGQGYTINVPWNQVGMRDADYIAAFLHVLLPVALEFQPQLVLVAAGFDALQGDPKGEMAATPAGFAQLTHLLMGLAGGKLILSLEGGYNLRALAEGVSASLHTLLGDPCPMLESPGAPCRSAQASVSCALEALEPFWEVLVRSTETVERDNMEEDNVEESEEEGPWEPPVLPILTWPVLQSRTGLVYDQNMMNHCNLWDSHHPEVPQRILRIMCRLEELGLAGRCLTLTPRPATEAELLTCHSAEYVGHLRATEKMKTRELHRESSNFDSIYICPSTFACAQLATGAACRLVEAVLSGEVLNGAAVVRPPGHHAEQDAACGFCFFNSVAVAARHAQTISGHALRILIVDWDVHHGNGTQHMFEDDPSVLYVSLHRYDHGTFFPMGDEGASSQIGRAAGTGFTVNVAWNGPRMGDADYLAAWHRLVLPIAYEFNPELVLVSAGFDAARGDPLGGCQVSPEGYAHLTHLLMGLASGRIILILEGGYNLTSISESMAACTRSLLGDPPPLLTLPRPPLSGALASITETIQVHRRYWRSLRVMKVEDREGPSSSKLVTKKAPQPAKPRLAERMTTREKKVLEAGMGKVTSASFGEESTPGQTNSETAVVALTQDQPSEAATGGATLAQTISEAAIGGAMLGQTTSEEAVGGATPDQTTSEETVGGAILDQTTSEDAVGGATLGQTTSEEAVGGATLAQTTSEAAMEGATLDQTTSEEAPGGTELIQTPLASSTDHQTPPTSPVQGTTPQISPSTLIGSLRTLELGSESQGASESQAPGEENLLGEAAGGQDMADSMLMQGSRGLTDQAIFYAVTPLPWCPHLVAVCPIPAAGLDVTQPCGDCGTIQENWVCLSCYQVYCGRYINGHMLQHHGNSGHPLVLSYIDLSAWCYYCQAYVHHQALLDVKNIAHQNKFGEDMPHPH

Row | SMILES | IC50 [nM]
1 | O=C(NO)c1ccc(CN2CC3(CCOC3)C2)c(F)c1 | 1
2 | Cn1c2c(c3ccccc31)CCN(Cc1ccc(C(=O)NO)cc1F)C2 | 1
3 | CN1Cc2cc(C(=O)NO)ccc2CN1Cc1ccccc1 | 1

Continued, values first:

Row | IC50 [nM] | SMILES
4 | 1 | CN1CC2(CCCCC2)CC[C@H]1Cc1cc(F)cc(C(=O)NO)c1
5 | 1 | O=C(NO)c1cc(F)c2c(c1)CCn1cccc1-2
6 | 1 | O=C(NO)c1cc(F)c2c(c1)CCN(C1CCC1)C2
